22 compounds from US11970474B2, “Substituted benzodiazoles and use thereof in therapy” (THOMAS HELLEDAYS STIFTELSE FÖR MEDICINSK FORSKNING, priority 2018, dated 2024) can be followed below.

A word on the pIC50: it is the negative decadic logarithm of the IC50, by convention in mol/L.

This assay concerns the target OGG1 (Homo sapiens (Human), UniProt O15527). Kind of assay: In vitro OGG1 activity assay. It counts as biochemical. As to conditions: 800 pM OGG1 enzyme, 2 nM human APEX1, 10 nM 8-oxoA:C substrate. The protocol: Method 1: In Vitro OGG1 Activity Assay OGG1 activity is assayed by measuring the increase in fluorescence from a duplex oligonucleotide containing an OGG1 substrate and a fluorophore in close proximity that are quenched by a quencher on the complementary strand. […] OGG1 activity releases the substrate base from DNA by cleaving the N-glycosidic bond between base and deoxyribose. The resulting apurinic site is cleaved by an excessive amount APEX1 activity which cause the duplex to melt, which in turn cause the fluorophore to become unquenched. Compounds to be tested are dissolved in DMSO and nano-dispensed directly into black 384-well plates, followed by transfer of enzyme and substrate solutions. […] The fluorescent signal is recorded in a plate reader equipped with suitable filters to register fluorescein fluorescence.

pIC50: −log10 of the molar value.

Sequence of OGG1 (O15527 whole entry): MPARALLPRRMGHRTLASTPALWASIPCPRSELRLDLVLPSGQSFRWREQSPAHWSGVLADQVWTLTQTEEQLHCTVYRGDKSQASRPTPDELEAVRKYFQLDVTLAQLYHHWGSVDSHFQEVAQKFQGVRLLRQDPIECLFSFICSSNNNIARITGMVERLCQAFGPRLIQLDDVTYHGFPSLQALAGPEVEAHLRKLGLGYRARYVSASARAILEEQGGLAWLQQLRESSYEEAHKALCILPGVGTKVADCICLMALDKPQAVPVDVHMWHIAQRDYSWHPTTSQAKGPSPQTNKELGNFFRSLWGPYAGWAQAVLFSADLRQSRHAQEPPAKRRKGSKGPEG

On to `COc1cc(NC(=O)[C@H]2CC[C@@H](n3c(=O)[nH]c4c(S(=O)(=O)CC(=O)O)cccc43)CC2)ccc1C` [Example 239, 2-({2-Oxo-1-[cis-4-[(3-methoxy-4-methylphenyl)carbamoyl]cyclohexyl]-2,3-dihydro-1H-1,3-benzodiazol-4-yl}sulfonyl)acetic acid], for which the pIC50 is 7.30.
Then `COc1cc(NC(=O)[C@H]2CC[C@@H](n3c(=O)[nH]c4cc(CN)ccc43)CC2)ccc1C` [Example 256, Cis-4-[5-(aminomethyl)-2-oxo-2,3-dihydro-1H-1,3-benzodiazol-1-yl]-N-(3-methoxy-4-methylphenyl)cyclohexane-1-carboxamide], with 5.57; and `COc1cc(NC(=O)[C@H]2CC[C@@H](n3c(=O)[nH]c4c(NC(=O)CN)cccc43)CC2)ccc1C` [Example 255, Cis-4-[4-(2-aminoacetamido)-2-oxo-2,3-dihydro-1H-1,3-benzodiazol-1-yl]-N-(3-methoxy-4-methylphenyl)cyclohexane-1-carboxamide], with 7.51; and `COc1cc(NC(=O)[C@H]2CC[C@@H](n3c(=O)[nH]c4c(OCCOC5CCCCC5)cccc43)CC2)ccc1C` [Example 326, Cis-4-(4-(2-(cyclohexyloxy)ethoxy)-2-oxo-2,3-dihydro-1H-benzo[d]imidazol-1-yl)-N-(3-methoxy-4-methylphenyl)cyclohexanecarboxamide], with 6.93.
Under `COc1cc(NC(=O)[C@H]2CC[C@@H](n3c(=O)[nH]c4c(C(N)=O)cccc43)CC2)ccc1C` [Example 291, 2-Oxo-1-[cis-4-[(3-methoxy-4-methylphenyl)carbamoyl]cyclohexyl]-2,3-dihydro-1H-1,3-benzodiazole-4-carboxamide] stands 8.02; under `COc1cc(NC(=O)[C@H]2CC[C@@H](n3c(=O)[nH]c4c(OCC(=O)O)cccc43)CC2)ccc1C` [Example 242, 2-({2-Oxo-1-[cis-4-[(3-methoxy-4-methylphenyl)carbamoyl]cyclohexyl]-2,3-dihydro-1H-1,3-benzodiazol-4-yl}oxy)acetic acid], 6.90.
Under `COc1cccc2c1[nH]c(=O)n2C1CCN(C(=O)Nc2ccc(Cl)cc2)CC1` [Example 8, N-(4-chlorophenyl)-4-(4-methoxy-2-oxo-2,3-dihydro-1H-1,3-benzodiazol-1-yl)piperidine-1-carboxamide] stands 5.81; under `Cc1cccc2c1[nH]c(=O)n2C1CCN(C(=O)Nc2ccc(I)cc2)CC1` [Example 4, N-(4-iodophenyl)-4-(4-methyl-2-oxo-2,3-dihydro-1H-1,3-benzodiazol-1-yl)piperidine-1-carboxamide], 6.18.
Turning to `CNC(=O)c1cccc2c1[nH]c(=O)n2[C@H]1CC[C@@H](C(=O)Nc2ccc(C)c(OC)c2)CC1` [Example 259, N-Methyl-2-oxo-1-[cis-4-[(3-methoxy-4-methylphenyl)carbamoyl]cyclohexyl]-2,3-dihydro-1H-1,3-benzodiazole-4-carboxamide], the pIC50 is 8.40.
Under `N#Cc1cc(NC(=O)[C@H]2CC[C@@H](n3c(=O)[nH]c4c(Br)cccc43)CC2)ccc1Cl` [Example 157, (Cis)-4-(4-bromo-2-oxo-2,3-dihydro-1H-1,3-benzodiazol-1-yl)-N-(4-chloro-3-cyanophenyl)cyclohexane-1-carboxamide] stands 6.82.
In turn, `O=c1[nH]c2c(Br)cccc2n1[C@H]1CC[C@@H](C(=O)Nc2cnc(Cl)c(Cl)c2)CC1` [Example 185, Cis-4-(4-bromo-2-oxo-2,3-dihydro-1H-1,3-benzodiazol-1-yl)-N-(5,6-dichloropyridin-3-yl)cyclohexane-1-carboxamide] had a pIC50 of 5.86.
Under `COc1cc(NC(=O)[C@H]2CC[C@@H](n3c(=O)[nH]c4c(NC(=O)c5coc(N)n5)cccc43)CC2)ccc1C` [Example 320, 2-Amino-N-{2-oxo-1-[cis-4-[(3-methoxy-4-methylphenyl)carbamoyl]cyclohexyl]-2,3-dihydro-1H-1,3-benzodiazol-4-yl}-1,3-oxazole-4-carboxamide] stands 7.66; under `N#Cc1ccc(NC(=O)[C@H]2CC[C@@H](n3c(=O)[nH]c4c(Br)cccc43)CC2)cc1` [Example 132, (Cis)-4-(4-bromo-2-oxo-2,3-dihydro-1H-1,3-benzodiazol-1-yl)-N-(4-cyanophenyl)cyclohexane-1-carboxamide], 5.17.
Under `Cc1ccc2c(c1)[nH]c(=O)n2C1CCN(C(=O)Nc2ccc(I)cc2)CC1` [Example 11, N-(4-iodophenyl)-4-(5-methyl-2-oxo-2,3-dihydro-1H-1,3-benzodiazol-1-yl)piperidine-1-carboxamide] stands 5.75.
Then `COc1ccc(NC(=O)[C@H]2CC[C@@H](n3c(=O)[nH]c4c(F)cccc43)CC2)cc1F` [Example 213, Cis-4-(4-fluoro-2-oxo-2,3-dihydro-1H-1,3-benzodiazol-1-yl)-N-(3-fluoro-4-methoxyphenyl)cyclohexane-1-carboxamide], with 6.81; and `O=C(Nc1ccc(I)cc1)N1CCC(n2c(=O)[nH]c3c(C4CC4)cccc32)CC1` [Example 31, 4-(4-Cyclopropyl-2-oxo-2,3-dihydro-1H-1,3-benzodiazol-1-yl)-N-(4-iodophenyl)piperidine-1-carboxamide], with 5.96.
`COc1ccc(NC(=O)N2CCC(n3c(=O)[nH]c4c(SC)cccc43)CC2)cc1Cl` [Example 176, N-(3-Chloro-4-methoxyphenyl)-4-[4-(methylsulfanyl)-2-oxo-2,3-dihydro-1H-1,3-benzodiazol-1-yl]piperidine-1-carboxamide] gave a pIC50 of 5.97.
Then `O=C(Nc1ccc(I)cc1)N1CCC(n2c(=O)[nH]c3c(CCO)cccc32)CC1` [Example 30, 4-[4-(2-Hydroxyethyl)-2-oxo-2,3-dihydro-1H-1,3-benzodiazol-1-yl]-N-(4-iodophenyl)piperidine-1-carboxamide], with 5.77; and `COc1cc(NC(=O)[C@H]2CC[C@@H](n3c(=O)[nH]c4c(C(=O)NC5CCNC5)cccc43)CC2)ccc1C` (stereo partly drawn) [Example 294, 2-Oxo-N-(pyrrolidin-3-yl)-1-[cis-4-[(3-methoxy-4-methylphenyl)carbamoyl]cyclohexyl]-2,3-dihydro-1H-1,3-benzodiazole-4-carboxamide], with 8.92.
Under `Cc1ccc(NC(=O)[C@H]2CC[C@@H](n3c(=O)[nH]c4c(Br)cccc43)CC2)nc1` [Example 189, Cis-4-(4-bromo-2-oxo-2,3-dihydro-1H-1,3-benzodiazol-1-yl)-N-(5-methylpyridin-2-yl)cyclohexane-1-carboxamide] stands 5.75; under `Cc1cc(NC(=O)[C@H]2CC[C@@H](n3c(=O)[nH]c4ccc(F)cc43)CC2)ccc1O` [Example 220, Cis-4-(6-fluoro-2-oxo-2,3-dihydro-1H-1,3-benzodiazol-1-yl)-N-(4-hydroxy-3-methylphenyl)cyclohexane-1-carboxamide], 5.06; under `COc1cccc(NC(=O)[C@H]2CC[C@@H](n3c(=O)[nH]c4c(Br)cccc43)CC2)c1` [Example 165, (Cis)-4-(4-bromo-2-oxo-2,3-dihydro-1H-1,3-benzodiazol-1-yl)-N-(3-methoxyphenyl)cyclohexane-1-carboxamide], 5.86.
